# Test results taken from the supplement of paper PMC10307832.
# What was measured:
# Assay in all cases: relative viability (nuclei count vs DMSO), 5 days (fraction); higher = more cells survive
# ABC-1 = system: ABC-1
# Method in brief: (§1)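 Relative viability is defined as nuclei in treated wells over nuclei in vehicle wells. Duplicate plates were run and medians reported. Lung cancer cell lines in 1536-well plates were dosed by pin tool one day after seeding, with one drug or with a fixed anchor-drug dose plus five library-drug doses (not always all listed) in √10 steps, and nuclei were counted after 5 days.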
# COR-L23 = system: COR-L23
# Method in brief: as §1
# ChaGo-K-1 = system: ChaGo-K-1
# Method in brief: as §1
# NCI-H1437 = system: NCI-H1437
# Method in brief: as §1
# NCI-H1623 = system: NCI-H1623
# Method in brief: as §1
# NCI-H1651 = system: NCI-H1651
# Method in brief: as §1
# SK-MES-1 = system: SK-MES-1
# Method in brief: as §1
# SW 1573 = system: SW 1573
# Method in brief: as §1
Compound,relative viability (ABC-1; first compound 0.08 µM),relative viability (ABC-1; first compound 0.253 µM),relative viability (ABC-1; first compound 0.8 µM),relative viability (ABC-1; first compound 2.53 µM),relative viability (ABC-1; first compound 8 µM),relative viability (COR-L23; first compound 0.08 µM),relative viability (COR-L23; first compound 0.253 µM),relative viability (COR-L23; first compound 0.8 µM),relative viability (COR-L23; first compound 2.53 µM),relative viability (COR-L23; first compound 8 µM),relative viability (ChaGo-K-1; first compound 0.08 µM),relative viability (ChaGo-K-1; first compound 0.253 µM),relative viability (ChaGo-K-1; first compound 0.8 µM),relative viability (ChaGo-K-1; first compound 2.53 µM),relative viability (ChaGo-K-1; first compound 8 µM),relative viability (NCI-H1437; first compound 0.08 µM),relative viability (NCI-H1437; first compound 0.253 µM),relative viability (NCI-H1437; first compound 0.8 µM),relative viability (NCI-H1437; first compound 2.53 µM),relative viability (NCI-H1437; first compound 8 µM),relative viability (NCI-H1623; first compound 0.08 µM),relative viability (NCI-H1623; first compound 0.253 µM),relative viability (NCI-H1623; first compound 0.8 µM),relative viability (NCI-H1623; first compound 2.53 µM),relative viability (NCI-H1623; first compound 8 µM),relative viability (NCI-H1651; first compound 0.08 µM),relative viability (NCI-H1651; first compound 0.253 µM),relative viability (NCI-H1651; first compound 0.8 µM),relative viability (NCI-H1651; first compound 2.53 µM),relative viability (NCI-H1651; first compound 8 µM),relative viability (SK-MES-1; first compound 0.08 µM),relative viability (SK-MES-1; first compound 0.253 µM),relative viability (SK-MES-1; first compound 0.8 µM),relative viability (SK-MES-1; first compound 2.53 µM),relative viability (SK-MES-1; first compound 8 µM),relative viability (SW 1573; first compound 0.08 µM),relative viability (SW 1573; first compound 0.253 µM),relative viability (SW 1573; first compound 0.8 µM),relative viability (SW 1573; first compound 2.53 µM),relative viability (SW 1573; first compound 8 µM)
O=c1cc(-c2cccc3c2Sc2ccccc2S3)oc(N2CCOCC2)c1 + CCNC(=O)c1noc(-c2cc(C(C)C)c(O)cc2O)c1-c1ccc(CN2CCOCC2)cc1 [Luminespib] (partner 0.01 µM),0.535,0.275,0.91,0.529,0.532,0.863,0.854,0.837,0.78,0.703,0.533,0.763,0.658,0.67,0.548,1.08,1.29,1.28,1.15,1.21,0.615,0.589,0.472,0.411,0.495,0.81,0.93,0.889,0.807,0.791,0.775,0.748,0.734,0.522,0.505,0.213,0.18,0.495,0.194,0.237
COc1nc(C)cnc1NS(=O)(=O)c1cccnc1-c1ccc(-c2nnco2)cc1 [Zibotentan] + CCNC(=O)c1noc(-c2cc(C(C)C)c(O)cc2O)c1-c1ccc(CN2CCOCC2)cc1 [Luminespib] (partner 0.01 µM),0.48,–,0.694,0.696,–,0.879,0.656,0.719,0.667,–,0.568,0.683,0.588,0.503,–,1.15,0.967,1.12,1.15,–,0.427,–,0.445,0.486,–,0.802,0.484,0.958,0.796,–,1.05,0.788,0.818,0.83,–,0.341,–,0.348,0.269,–
O=c1cc(-c2cccc3c2Sc2ccccc2S3)oc(N2CCOCC2)c1 + Cc1nc(Nc2ncc(C(=O)Nc3c(C)cccc3Cl)s2)cc(N2CCN(CCO)CC2)n1 [Dasatinib] (partner 0.075 µM),0.604,0.651,0.531,0.492,0.653,0.564,0.589,0.571,0.58,0.504,0.499,0.568,0.585,0.454,0.674,0.435,0.488,0.401,0.339,0.423,0.488,0.568,0.501,0.57,0.536,0.401,0.457,0.392,0.312,0.387,0.335,0.256,0.312,0.317,0.289,0.417,0.66,0.706,0.436,0.461
